Like-named read-outs stand apart in the source and are kept apart here.
Question: With “isophosphoramide nitrogen mustard [Br-IPM]” as the substance, how does the “Stability of the Br-IPM crystals on storage (in words)” value (placed at 40° C.) read?
Answer: The value was “unstable”.

Question: And the “Br-IPM content in the analysis of related substances” value (from here on “Br-IPM content in the analysis”) (stored at 2-8° C., day 0)?
Answer: The value was 93.23%.

Question: What about the “Br-IPM content in the analysis” value (stored at 2-8° C., day 3) of the same substance?
Answer: Its value is 93.28%.

Question: What about the “Br-IPM content in the analysis” value (stored at 2-8° C., day 4) of the same substance?
Answer: Its value is 95.06%.

Question: What about the “Br-IPM content in the analysis” value (stored at 2-8° C., day 5) of the same substance?
Answer: Its value is 94.29%.

Question: What about the “Br-IPM content in the analysis” value (stored at 2-8° C., day 6) of the same substance?
Answer: Its value is 94.56%.

Question: What about the “Br-IPM content in the analysis” value (stored at 2-8° C., day 7) of the same substance?
Answer: Its value is 95.57%.

Question: And the “Br-IPM content in the analysis” value (stored at 2-8° C., day 10)?
Answer: Its value is 95.17%.

Question: And the “Br-IPM content in the analysis” value (stored at 2-8° C., day 11)?
Answer: The value was 95.07%.

Question: And the “Br-IPM content in the analysis” value (stored at 2-8° C., day 12)?
Answer: The value was 95.07%.

Question: And the “Br-IPM content in the analysis” value (stored at 2-8° C., day 13)?
Answer: The value was 95.44%.

Question: And the “Br-IPM content in the analysis” value (stored at 2-8° C., day 14)?
Answer: Its value is 95.25%.

Question: What about the “Br-IPM content in the analysis” value (stored at 2-8° C., day 17) of the same substance?
Answer: The value was 95.76%.

Question: What about the “Br-IPM content in the analysis” value (stored at 2-8° C., day 21) of the same substance?
Answer: The value was 95.19%.

Question: And the “Br-IPM content in the analysis” value (stored at 2-8° C., day 28)?
Answer: The value was 96.22%.

Question: And the “Br-IPM content in the analysis” value (stored at 2-8° C., day 35)?
Answer: The value was 95.09%.

Question: What about the “Time for which the Br-IPM crystals are relatively stable / can be stored” value (stored at 25° C. (room temperature)) of the same substance?
Answer: Its value is 28 days.

Question: What about the “Br-IPM content in the analysis” value (stored at 25° C., day 0) of the same substance?
Answer: Its value is 93.23%.

Question: And the “Br-IPM content in the analysis” value (stored at 25° C., day 3)?
Answer: Its value is 94.17%.

Question: And the “Br-IPM content in the analysis” value (stored at 25° C., day 4)?
Answer: The value was 94.89%.

Question: What about the “Br-IPM content in the analysis” value (stored at 25° C., day 5) of the same substance?
Answer: The value was 94.53%.

Question: What about the “Br-IPM content in the analysis” value (stored at 25° C., day 6) of the same substance?
Answer: Its value is 94.32%.

Question: And the “Br-IPM content in the analysis” value (stored at 25° C., day 7)?
Answer: Its value is 93.86%.

Question: What about the “Br-IPM content in the analysis” value (stored at 25° C., day 10) of the same substance?
Answer: The value was 94.64%.

Question: And the “Br-IPM content in the analysis” value (stored at 25° C., day 11)?
Answer: Its value is 95.25%.

Question: What about the “Br-IPM content in the analysis” value (stored at 25° C., day 12) of the same substance?
Answer: The value was 94.97%.

Question: And the “Br-IPM content in the analysis” value (stored at 25° C., day 13)?
Answer: The value was 95.28%.

Question: And the “Br-IPM content in the analysis” value (stored at 25° C., day 14)?
Answer: Its value is 94.61%.

Question: What about the “Br-IPM content in the analysis” value (stored at 25° C., day 17) of the same substance?
Answer: Its value is 94.75%.

Question: And the “Br-IPM content in the analysis” value (stored at 25° C., day 21)?
Answer: The value was 93.81%.

Question: And the “Br-IPM content in the analysis” value (stored at 25° C., day 28)?
Answer: The value was 94.01%.

Question: And the “Br-IPM content in the analysis” value (stored at 25° C., day 35)?
Answer: Its value is 91.42%.

Question: And the “Br-IPM content in the analysis” value (stored at 40° C., day 0)?
Answer: Its value is 93.23%.

Question: And the “Br-IPM content in the analysis” value (stored at 40° C., day 3)?
Answer: The value was 86.36%.

Question: What about the “Br-IPM content in the analysis” value (stored at −5° C., day 0) of the same substance?
Answer: Its value is 93.23%.

Question: What about the “Br-IPM content in the analysis” value (stored at −5° C., day 3) of the same substance?
Answer: Its value is 94.65%.

Question: And the “Br-IPM content in the analysis” value (stored at −5° C., day 4)?
Answer: Its value is 95.12%.

Question: And the “Br-IPM content in the analysis” value (stored at −5° C., day 5)?
Answer: Its value is 94.07%.

Question: And the “Br-IPM content in the analysis” value (stored at −5° C., day 6)?
Answer: Its value is 95.48%.

Question: And the “Br-IPM content in the analysis” value (stored at −5° C., day 7)?
Answer: Its value is 94.96%.

Question: What about the “Br-IPM content in the analysis” value (stored at −5° C., day 10) of the same substance?
Answer: The value was 95.03%.

Question: And the “Br-IPM content in the analysis” value (stored at −5° C., day 11)?
Answer: The value was 95.50%.

Question: What about the “Br-IPM content in the analysis” value (stored at −5° C., day 12) of the same substance?
Answer: Its value is 95.04%.

Question: And the “Br-IPM content in the analysis” value (stored at −5° C., day 13)?
Answer: Its value is 95.23%.

Question: And the “Br-IPM content in the analysis” value (stored at −5° C., day 14)?
Answer: Its value is 95.28%.

Question: What about the “Br-IPM content in the analysis” value (stored at −5° C., day 17) of the same substance?
Answer: The value was 95.07%.

Question: What about the “Br-IPM content in the analysis” value (stored at −5° C., day 21) of the same substance?
Answer: Its value is 95.30%.

Question: What about the “Br-IPM content in the analysis” value (stored at −5° C., day 28) of the same substance?
Answer: The value was 94.83%.

Question: What about the “Br-IPM content in the analysis” value (stored at −5° C., day 35) of the same substance?
Answer: Its value is 94.64%.

— US20250011348A1, “Synthesis Process of X-IPM, Stable Crystal Form and Application Thereof” (ASCENTAWITS PHARMACEUTICALS, LTD., priority 2023, published 2025)
